The target in one experiment is 5HT2A (Homo sapiens, UniProt P28223). Briefly: FLIPR calcium assay for 5HT2A target activity (transfected HEK293 cells). It is filed as cell-based.
A further experiment addresses T1, GlyT2 (Rattus norvegicus, UniProt P58295).
T1 construct: expressed in transfected cells
T1 sequence (P58295 1-799): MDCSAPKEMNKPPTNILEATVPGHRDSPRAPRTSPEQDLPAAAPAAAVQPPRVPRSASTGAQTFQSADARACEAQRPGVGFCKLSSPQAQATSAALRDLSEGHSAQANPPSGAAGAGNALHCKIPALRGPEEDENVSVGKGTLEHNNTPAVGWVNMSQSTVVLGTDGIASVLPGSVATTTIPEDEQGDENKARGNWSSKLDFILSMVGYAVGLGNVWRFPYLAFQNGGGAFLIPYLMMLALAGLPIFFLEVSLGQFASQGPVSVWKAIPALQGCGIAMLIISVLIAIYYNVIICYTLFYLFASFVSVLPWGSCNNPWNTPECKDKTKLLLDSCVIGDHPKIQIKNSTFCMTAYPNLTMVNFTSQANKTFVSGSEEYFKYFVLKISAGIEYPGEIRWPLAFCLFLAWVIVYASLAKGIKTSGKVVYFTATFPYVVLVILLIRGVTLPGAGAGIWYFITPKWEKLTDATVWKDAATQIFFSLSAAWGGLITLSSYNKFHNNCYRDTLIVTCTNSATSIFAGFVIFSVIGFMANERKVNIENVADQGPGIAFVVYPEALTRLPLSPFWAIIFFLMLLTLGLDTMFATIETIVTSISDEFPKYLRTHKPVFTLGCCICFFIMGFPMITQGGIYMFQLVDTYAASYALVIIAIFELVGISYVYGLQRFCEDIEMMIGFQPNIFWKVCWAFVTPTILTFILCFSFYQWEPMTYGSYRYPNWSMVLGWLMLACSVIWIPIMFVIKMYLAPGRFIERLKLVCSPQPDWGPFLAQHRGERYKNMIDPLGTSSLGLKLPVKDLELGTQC
Put plainly: FLIPR membrane potential assay for GlyT2 target activity (T-rex-293-rGlyT2 cells). It is filed as cell-based. The conditions noted are these: for inhibition at 10 µM: read-out: GlyT2 % inhibition. The method, then: GlyT2 (Glycine transporter type 2) is an electrogenic carrier associated with Na^+/Cl^− ion transportation, primarily distributed around the spinal cord part, and has an important role in the transfer of a pain signal in the spinal cord.
In order to identify the fact that the novel compound of the present invention has GlyT2 targeting activity, a membrane potential assay was performed. FLIPR Membrane Potential Assay is used to measure ion channel modulation caused by an increase or decrease in fluorescence signal due to variations of cellular membrane potential.
First, pcDNA4/TO vector encoding GlyT2 of the rat in HEK293 cell was transfected to prepare a stable recombinant cell line, i.e., T-rex-293-rGlyT2. A […] (Greiner #655090) coated with poly-D-lysine was prepared, and the above recombinant cells (T-rex-293-rGlyT2) were seeded at 3.2×10^4/well therein using a medium containing 15 μg/ml of tetracycline. After this, incubation was conducted at 37° C. for 48 hours under 5% CO2 conditions to express GlyT2. 10 ml of assay buffer (1×HBSS, 20 mM HEPES, pH 7.4) was added to a blue dye solution and sufficiently dissolved therein to prepare a membrane potential dye solution. After removing the medium from the well showing GlyT2 expression, the membrane potential dye solution was added to the well in an amount of 100 μl/well and incubated for 20 minutes.
According to the FLIPR Membrane Potential Assay kit's protocol, SoftMax Pro Software of FlexStation 3 software (Molecular Devices, US) was set up. An extent of GlyT2 expression was determined such that the extent of cellular membrane depolarization relative to an administered amount of glycine during glycine treatment is indicated in relative fluorescence units (RFU), and RFU (Max-Min) is calculated by subtracting the minimum value from the maximum value of RFU. After firstly treating 10 uM of the novel compound according to the present invention, glycine was treated and RFU (Max-Min) for glycine administration was determined. Then, with the determined result, the extent of depolarization inhibition (% inhibition) was assessed for each compound, compared to a positive control.
The positive control used herein was ORG25543 (500 nM) having strong inhibitory efficacy specific to GlyT2.
For GlyT2 inhibitory efficacy, the efficacy of the compound ORG25543 (500 nM) was defined as 100%. Similarly, for 5HT2A inhibitory efficacy, the efficacy of MDL11939 (100 nM) was defined as 100%. Therefore, the target inhibitory efficacy of each compound was indicated in a relative value compared to the above defined efficacy.

Setting [1] is: HEK293, 10 uM compound, then serotonin, relative to MDL11939 (100 nM) defined as 100%, read-out: 5HT2A % inhibition.
[2] abbreviates: 10 uM compound, then glycine, relative to ORG25543 (500 nM) defined as 100%.
The mark [3] stands for this setting: HEK293, read-out: 5HT2A % inhibition.

Where two headings read alike, the source gives them in different places.

5HT2A, sequence (P28223 whole entry, species assumed): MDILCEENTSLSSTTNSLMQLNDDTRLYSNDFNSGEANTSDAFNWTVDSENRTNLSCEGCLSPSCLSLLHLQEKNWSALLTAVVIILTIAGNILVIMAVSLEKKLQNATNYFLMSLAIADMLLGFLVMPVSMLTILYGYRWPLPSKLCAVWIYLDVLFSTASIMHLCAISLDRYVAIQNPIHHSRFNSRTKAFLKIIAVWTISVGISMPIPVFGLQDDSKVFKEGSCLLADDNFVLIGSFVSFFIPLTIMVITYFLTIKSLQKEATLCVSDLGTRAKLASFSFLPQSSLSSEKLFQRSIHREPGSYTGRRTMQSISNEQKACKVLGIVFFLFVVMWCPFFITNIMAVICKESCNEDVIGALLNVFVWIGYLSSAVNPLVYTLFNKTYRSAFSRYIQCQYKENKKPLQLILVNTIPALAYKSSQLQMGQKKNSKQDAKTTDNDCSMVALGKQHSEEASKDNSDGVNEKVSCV

What is called inhibition is the relative decrease from the control value, in per cent. Turning to `CCN1CCC[C@@H]1CNC(=O)c1cc(OC)c(OCc2ccccc2)c(OC)c1` [VVZ-012], the figures for the inhibition at 10 µM on 5HT2A (setting [1]) and at GlyT2 (setting [2]) were 76.1% and 118%, respectively.
For `COc1cc(C(=O)NCC2(N3CCN(C)CC3)CCOCC2)cc(OC)c1OCc1ccccc1` [VVZ-071], the inhibition at 10 µM was determined as 60.8% on 5HT2A (setting [3]) and 78.8% on GlyT2.
Regarding `COc1cc(C(=O)NCC2(N3CCOCC3)CCOCC2)cc(OC)c1OCc1ccccc1` [VVZ-074], the inhibition at 10 µM is 155% at 5HT2A (setting [3]) and 73.5% on GlyT2.
Take `COc1cc(C(=O)NCC2CCCCN2C)cc(OC)c1OCc1ccccc1` (stereo not drawn) [VVZ-009]: the inhibition at 10 µM at 5HT2A (setting [1]) amounted to 90.4%; at GlyT2 (setting [2]), 117%.
Take `CN1CCN(C2(CNC(=O)c3ccc(OCc4ccccc4)cc3)CCOCC2)CC1` [VVZ-072]: the inhibition at 10 µM was determined as 101% on 5HT2A (setting [3]) and 59.1% at GlyT2.
With `COc1cc(C(=O)NCC2(N(C)C)CCC(F)(F)CC2)cc(OC)c1OCc1ccccc1` [VVZ-016], the inhibition at 10 µM at 5HT2A (setting [3]) amounted to 97.5%; on GlyT2, 109%.
`Cc1cc(C(=O)NCC2(N3CCN(C)CC3)CCCCC2)cc(C)c1OCc1ccccc1` [VVZ-063]: the inhibition at 10 µM at 5HT2A (setting [3]) was 76.7%; at GlyT2 it was 112%.
As for `COc1cc(C(=O)NCC2(N(C)C)CCOCC2)cc(OC)c1OCc1ccccc1` [VVZ-036], the inhibition at 10 µM came out at 66.1% at 5HT2A (setting [3]) and 103% on GlyT2.
For `COc1cc(C(=O)N[C@H]2CN3CCC2CC3)cc(OC)c1OCc1ccccc1` [VVZ-003], the values for the inhibition at 10 µM on 5HT2A (setting [1]) and at GlyT2 (setting [2]) were 31.6% and 78.2%, respectively.
As to `COc1cc(C(=O)NCC2(N(C)C)CCCCC2)cc(OC)c1OCc1ccccc1` [VVZ-037], the inhibition at 10 µM at 5HT2A (setting [3]) worked out at 99.8%; at GlyT2, 100%.
In the case of `COc1cc(C(=O)NCC(c2ccccc2)N2CCCC2)cc(OC)c1OCc1ccccc1` (stereo not drawn) [VVZ-035], the inhibition at 10 µM turned out to be 101% at 5HT2A (setting [1]) and 84.8% at GlyT2 (setting [2]).
For the molecule `COc1ccc(C(CNC(=O)c2cc(OC)c(OCc3ccccc3)c(OC)c2)N2CCCC2)cc1` (stereo not drawn) [VVZ-015], the inhibition at 10 µM stood at 57% on 5HT2A (setting [1]) and 108% on GlyT2 (setting [2]).
Consider `O=C(NCC1(N2CCOCC2)CCOCC1)c1ccc(OCc2ccccc2)cc1` [VVZ-076], for which the inhibition at 10 µM was found to be 113% at 5HT2A (setting [3]) and 50.6% on GlyT2.
In the case of `CN(C)C(CNC(=O)c1ccc(OCc2ccccc2)cc1)c1ccccc1` (stereo not drawn) [VVZ-051], the inhibition at 10 µM on 5HT2A (setting [3]) is 95%; on GlyT2 it was 110%.
Turning to `CCCCOc1c(OC)cc(C(=O)NC[C@H]2CCCN2CC)cc1OC` [VVZ-029], the inhibition at 10 µM on 5HT2A (setting [1]) was 71.3%; on GlyT2 (setting [2]), 46%.
Take `COc1cc(C(=O)NCC(c2ccccc2)N(C)C)cc(OC)c1OCc1ccccc1` (stereo not drawn) [VVZ-020]: the values for the inhibition at 10 µM at 5HT2A (setting [3]) and on GlyT2 were 94.1% and 103%, respectively.
As for `COc1cc(C(=O)NCC2(NCc3ccccc3)CCOCC2)cc(OC)c1OCc1ccccc1` [VVZ-084], the inhibition at 10 µM on 5HT2A (setting [1]) came out at 94.4%; at GlyT2 (setting [2]), 79%.
With `CCCCOc1ccc(C(=O)NCC(c2ccccc2)N(C)C)cc1` (stereo not drawn) [VVZ-052], the inhibition at 10 µM is 103% at 5HT2A (setting [3]) and 76.6% on GlyT2.
Consider `COc1cc(N)c(Cl)cc1C(=O)N[C@H]1CN2CCC1CC2` [VVZ-047], for which the figures for the inhibition at 10 µM on 5HT2A (setting [1]) and at GlyT2 (setting [2]) were 78.8% and 23.4%, respectively.
On to `COc1cc(C(=O)NCC2(N(C)C)CC=C(F)CC2)cc(OC)c1OCc1ccccc1` (stereo not drawn) [VVZ-028], for which the inhibition at 10 µM on 5HT2A (setting [3]) is 93.9%; on GlyT2 (setting [2]), 87.9%.
Take `COc1cc(N)c(Cl)cc1C(=O)NCC1(O)CCN(C)CC1` [VVZ-055]: the inhibition at 10 µM is 146% on 5HT2A (setting [1]) and 55.3% on GlyT2 (setting [2]).
Regarding `Cc1cc(C(=O)NCC2(N(C)C)CCC(F)(F)CC2)cc(C)c1OCc1ccccc1` [VVZ-058], the inhibition at 10 µM on 5HT2A (setting [3]) amounted to 134%; on GlyT2, 102%.
In the same order, the values of `COc1cc(C(=O)NCC(c2ccccc2)N2CCOCC2)cc(OC)c1OCc1ccccc1` (stereo not drawn) [VVZ-018] are 70.7% and 76.8%.
For the molecule `COc1cc(C(=O)NC2CCN(Cc3ccccc3)C2)cc(OC)c1OCc1ccccc1` (stereo not drawn) [VVZ-013], the inhibition at 10 µM was found to be 48.5% on 5HT2A (setting [1]) and 72.9% on GlyT2 (setting [2]).
With `COc1cc(C(=O)NCCN2CCOCC2)cc(OC)c1OCc1ccccc1` [VVZ-006], the inhibition at 10 µM on 5HT2A (setting [3]) was 89.8%; on GlyT2 (setting [2]), 48.9%.
`CCN(C)C1(CNC(=O)c2cc(OC)c(OCc3ccccc3)c(OC)c2)CC=C(F)CC1` (stereo not drawn) [VVZ-050]: the inhibition at 10 µM at 5HT2A (setting [1]) worked out at 108%; at GlyT2 (setting [2]), 117%.
With `O=C(NCC(c1ccccc1)N1CCOCC1)c1ccc(OCc2ccccc2)cc1` (stereo not drawn) [VVZ-081], the values for the inhibition at 10 µM at 5HT2A (setting [3]) and on GlyT2 were 71.5% and 45.3%, respectively.
For `CCCCOc1c(C)cc(C(=O)NCC2(O)CCN(C)CC2)cc1C` [VVZ-053], the inhibition at 10 µM worked out at 31.4% on 5HT2A (setting [1]) and 59.6% on GlyT2 (setting [2]).
In the case of `Cc1cc(C(=O)NC(CN2CCOCC2)c2ccccc2)cc(C)c1OCc1ccccc1` (stereo not drawn) [VVZ-080], the inhibition at 10 µM came out at 113% at 5HT2A (setting [1]) and 40.6% at GlyT2 (setting [2]).
On to `CN1CCN(C2(CNC(=O)c3ccc(OCc4ccccc4)cc3)CCCCC2)CC1` [VVZ-069], for which the inhibition at 10 µM at 5HT2A (setting [3]) amounted to 150%; on GlyT2 it was 83.9%.
Take `COc1cc(C(=O)N[C@@H]2CCN(Cc3ccccc3)C2)cc(OC)c1OCc1ccccc1` [VVZ-011]: the inhibition at 10 µM was 56.2% on 5HT2A (setting [1]) and 88.8% on GlyT2 (setting [2]).
In the same order, the values of `O=C(c1cccc(C(F)(F)F)c1)N1CCN(CCc2ccccc2)CC1` [VVZ-042] are 107% and 34.4%.
On to `COc1cc(C(=O)NCC(c2ccccc2)N(C)C)cc(OC)c1OCc1ccccc1` (stereo not drawn) [VVZ-010], for which the 5HT2A % inhibition on 5HT2A is reported as 108.1%. Further, the GlyT2 % inhibition on GlyT2 is reported as 102.5%.
Consider `Cc1cc(C(=O)NCC2(O)CCN(C)CC2)cc(C)c1OCc1ccccc1` [VVZ-054], for which the inhibition at 10 µM on 5HT2A (setting [1]) was 57.1%; on GlyT2 (setting [2]), 82.9%.
For the molecule `CCCCOc1c(OC)cc(C(=O)NCC(c2ccccc2)N(C)C)cc1OC` (stereo not drawn) [VVZ-033], the inhibition at 10 µM stood at 97.1% on 5HT2A (setting [3]) and 105% at GlyT2.
Consider `CCCCOc1c(C)cc(C(=O)NCC(c2ccccc2)N(C)C)cc1C` (stereo not drawn) [VVZ-057], for which the inhibition at 10 µM came out at 65.7% at 5HT2A (setting [3]) and 101% on GlyT2.
Consider `Cc1cc(C(=O)NCC(c2ccccc2)N(C)C)cc(C)c1OCc1ccccc1` (stereo not drawn) [VVZ-046], for which the inhibition at 10 µM came out at 54.2% at 5HT2A (setting [3]) and 113% on GlyT2.
With `CN(C)C1(CNC(=O)c2ccc(OCc3ccccc3)cc2)CCOCC1` [VVZ-065], on 5HT2A, the 5HT2A % inhibition came to 107.8%. Further, at GlyT2, the GlyT2 % inhibition was 105.1%.
In the case of `CCN1CCC[C@H]1CNC(=O)c1cc(OC)c(OCc2ccccc2)c(OC)c1` [VVZ-014], the inhibition at 10 µM at 5HT2A (setting [1]) was 93.6%; at GlyT2 (setting [2]), 75%.

The values are drawn from patent publication US9359346B2, “Benzamide derivative and use thereof” (VIVOZON, INC., priority 2011, dated 2016).
